Reference: patent publication EP2236157A1 (PharmaNeuroBoost N.V., priority 2009, dated 2010)

Columns and labels:
[1] = molecular target: other dopamine receptors; assay: receptor binding affinity (pKi)
[2] = test system: patients with OCD; assay: semi-naturalistic open label study of combo pipamperone-citalopram in obsessive-compulsive disorder (Example 4); assay type: in vivo; details: pipamperone 16-19 mg/day + citalopram 30-60 mg/day
Procedure: This semi-naturalistic open label study investigates the efficacy and tolerability of the combo pipamperone - citalopram in the treatment of patients with OCD.
Characteristics: patients have an obsessive-compulsive disorder according to DSM-IV criteria, with or without a chronic course and a treatment refractory state towards another SSRI than citalopram.
Treatment with the combo pipamperone-citalopram (n = 7). Treatment with fluvoxamine (controlled release) mean 271 mg/day (n = 253) is according to Hollander et al. (2003).
The intention-to-treat/last-observation-carried-forward analysis is evaluated relating to therapeutic efficacy according Y-BOCS total score, obsession and compulsion scores.

[3] = molecular target: T1, D4 receptor (Homo sapiens, UniProt P21917); assay: receptor binding affinity (pKi); details: read-out: pKi value towards the D4 receptor (converted)
T1 sequence (P21917 1-419): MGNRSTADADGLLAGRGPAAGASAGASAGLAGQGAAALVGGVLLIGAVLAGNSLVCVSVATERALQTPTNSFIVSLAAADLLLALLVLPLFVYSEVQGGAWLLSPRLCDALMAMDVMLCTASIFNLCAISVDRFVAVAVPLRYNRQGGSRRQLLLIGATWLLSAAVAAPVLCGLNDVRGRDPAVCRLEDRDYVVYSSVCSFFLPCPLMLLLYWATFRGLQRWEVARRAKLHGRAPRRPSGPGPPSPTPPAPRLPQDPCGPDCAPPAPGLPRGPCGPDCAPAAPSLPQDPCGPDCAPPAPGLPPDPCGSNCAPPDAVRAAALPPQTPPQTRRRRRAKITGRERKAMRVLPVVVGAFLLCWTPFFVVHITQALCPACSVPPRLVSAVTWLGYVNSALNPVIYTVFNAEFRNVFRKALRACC

[4] = test system: adrenergic receptors α-1A, α-2A, α-2B, α-2C, β-1, β-2, and the histamine receptor H1; assay: receptor binding affinity (Table 1); details: β-1, β-2 and histamine receptor H1
[5] = test system: patients with major depression; assay: semi-naturalistic open label study of combo pipamperone-citalopram in major depression (Example 2); assay type: in vivo
Source text: This semi-naturalistic open label study investigated the efficacy and tolerability of the combo pipamperone - citalopram in the treatment of patients with major depression.
• Design: Semi-naturalistic i.e. inclusion of every 'natural' patient in an outpatient practice but without concomitant use of mood enhancing drugs, open label • Control: No • Phase: Phase IIa - preliminary Proof of Concept • Location: Belgium - Research Centre ANIMA, Alken • End Points : Assessment scale scores, Hamilton Depression Rating Scale 17 items, Reduction, Response, Remission • Medication: Exclusion of mood stabilisers, antipsychotics (typical and atypical) and other antidepressants
Patients have a major depressive disorder according to DSM-IV criteria, with or without a chronic course and a treatment refractory state towards another SSRI than citalopram. […]
Adverse events are assessed on: body as a whole, central and peripheral nervous system, gastrointestinal, musculoskeletal, psychiatric, respiratory, skin and appendages, vascular and urinary, taking into account discontinued treatment due to adverse events. Laboratory parameters, ECG, bodyweight and vital signs are not measured since this is a naturalistic study.

[6] = molecular target: other 5HT receptors; assay: receptor binding affinity (pKi)

**Q.** Which “pKi value towards other dopamine receptors” value [1] does the source give for `NC(=O)C1(N2CCCCC2)CCN(CCCC(=O)c2ccc(F)cc2)CC1` [pipamperone, 1'-[3-(p-Fluorobenzoyl)propyl]-[1,4'-bipiperidine]-4'-carboxamide] here?
**A.** The value was “less than 8”.

**Q.** And the sedative effects [2]?
**A.** The sedative effects was “lacking”.

**Q.** And the Ki [3]?
**A.** The Ki was at most 10 nM.

**Q.** And the “affinity for other receptors” value [4]?
**A.** The value was “low or absence of affinity”.

**Q.** And the sedative effects ([5]; major depression study, pipamperone 16-19 mg/day)?
**A.** Its sedative effects is “lacking”.

**Q.** What about the “boosting effect on a SSRI (citalopram)” value ([5]; major depression, pipamperone 16-19 mg/day + citalopram 10-20 mg/day, PO, 8 weeks) of the same compound?
**A.** The value was “apparent”.

**Q.** What about the “pKi value towards other 5HT receptors” value [6] of the same compound?
**A.** The value was “less than 8”.
